Experimental data published in PubChem BioAssay (NCI).
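96-well plates; 48 h exposure; 5 concentrations. Endpoints by linear interpolation between flanking doses. Not reached: highest tested concentration assigned. GI50 is the concentration that inhibits growth by half. Definition used: TGI = concentration required for complete inhibition of growth.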

Tests used:
Test in all cases: DTP human tumour cell line panel, 48 h
[1] = system: HT29 colon
[2] = system: ACHN renal
[3] = system: SK-MEL-2 melanoma
[4] = system: HCT-15 colon
[5] = system: OVCAR-5 ovarian
[6] = system: T-47D breast
[7] = system: BT-549 breast
[8] = system: SR leukemia
[9] = system: COLO 205 colon
[10] = system: UACC-257 melanoma
[11] = system: NCI-H522 lung
[12] = system: NCI-H226 lung
[13] = system: SF-268 CNS
[14] = system: A498 renal
[15] = system: RPMI-8226 leukemia
[16] = system: MDA-MB-231 breast
[17] = system: UO-31 renal
[18] = system: TK-10 renal
[19] = system: MDA-MB-435
[20] = system: HOP-62 NSCLC
[21] = system: SN12C renal
[22] = system: KM12 colon
[23] = system: SNB-75 CNS
[24] = system: HL-60(TB) leukemia
[25] = system: U251 CNS
[26] = system: NCI-H460 lung
[27] = system: OVCAR-4 ovarian
[28] = system: 786-0 renal
[29] = system: SF-295 CNS
[30] = system: HOP-92 NSCLC
[31] = system: MCF7 breast
[32] = system: PC-3 prostate
[33] = system: SK-MEL-28 melanoma
[34] = system: HCT-116 colon
[35] = system: DU-145 prostate
[36] = system: EKVX NSCLC
[37] = system: SK-OV-3 ovarian
[38] = system: MOLT-4 leukemia
[39] = system: SNB-19 CNS
[40] = system: OVCAR-3 ovarian
[41] = system: UACC-62 melanoma
[42] = system: MALME-3M melanoma
[43] = system: M14 melanoma
[44] = system: NCI-H23 lung
[45] = system: SF-539 CNS
[46] = system: RXF 393 renal
[47] = system: IGROV1 ovarian
[48] = system: HS 578T breast
[49] = system: CAKI-1 renal
[50] = system: NCI/ADR-RES ovarian
[51] = system: OVCAR-8 ovarian
[52] = system: A549 NSCLC
[53] = system: SK-MEL-5 melanoma
[54] = system: SW-620 colon
[55] = system: K-562 leukemia
[56] = system: LOX IMVI melanoma
[57] = system: CCRF-CEM leukemia
[58] = system: HCC-2998 colon

For `Cc1[nH]nc(-c2ccon2)c1N=O`, the TGI [1] was 39.6 µM, the TGI [2] was 28.4 µM and the TGI [3] was > 100 µM. For the same molecule, the TGI [4] was 34.7 µM, the TGI [5] was 35.1 µM and the TGI [6] was 60.5 µM. The TGI [7] was 38 µM, the TGI [8] was 29.5 µM and the TGI [9] was 49.4 µM. For the same molecule, the TGI [10] was 31.7 µM, the TGI [11] was 48.5 µM and the TGI [12] was 28.6 µM. For the same molecule, the TGI [13] was 42.8 µM, the TGI [14] was > 100 µM and the TGI [15] was 17.1 µM. The TGI [16] was 32.4 µM, the TGI [17] was 46.6 µM and the TGI [18] was 32.9 µM. It also gave a TGI [19] of 41 µM, a TGI [20] of 41.9 µM and a TGI [21] of 42 µM. The TGI [22] was 38.4 µM, the TGI [23] was > 100 µM and the TGI [24] was 36.3 µM. For the same molecule, the TGI [25] was 32.8 µM, the TGI [26] was > 100 µM and the TGI [27] was 37.6 µM. The TGI [28] was 39.2 µM, the TGI [29] was 34.6 µM and the TGI [30] was 29 µM. For the same molecule, the TGI [31] was 63.2 µM, the TGI [32] was 70.3 µM and the TGI [33] was 43.1 µM. The TGI [34] was 56.8 µM, the TGI [35] was 41.2 µM and the TGI [36] was 31.3 µM. It also gave a TGI [37] of 89.2 µM, a TGI [38] of 6.18 µM and a TGI [39] of 64.8 µM. The TGI [40] was 33.7 µM, the TGI [41] was 34.7 µM and the TGI [42] was 38.2 µM. The TGI [43] was 43.5 µM, the TGI [44] was 45.8 µM and the TGI [45] was 32.7 µM. The TGI [46] was 97.7 µM, the TGI [47] was 70.1 µM and the TGI [48] was 80.7 µM. For the same molecule, the TGI [49] was 60.5 µM, the TGI [50] was 38 µM and the TGI [51] was 31.6 µM. For the same molecule, the TGI [52] was 57.6 µM, the TGI [53] was 34.3 µM and the TGI [54] was 49.1 µM. The TGI [55] was 44.8 µM.
With `C=CCc1cc(Nc2c3ccc(Cl)cc3nc3ccc(OC)cc23)cc(CN(CC)CC)c1O` the GI50 [1] was 1.75 µM, the TGI [1] was 10.1 µM and the GI50 [2] was 2.12 µM. It also gave a TGI [2] of 13.1 µM, a GI50 [3] of 1.9 µM and a TGI [3] of 4.93 µM. For the same molecule, the GI50 [4] was 2.59 µM, the TGI [4] was 12 µM and the GI50 [5] was 6.75 µM. The TGI [5] was 26 µM, the GI50 [6] was 0.499 µM and the TGI [6] was 4.28 µM. The GI50 [7] was 1.38 µM, the TGI [7] was 8.1 µM and the GI50 [8] was 0.362 µM. For the same molecule, the TGI [8] was 3.47 µM, the GI50 [9] was 1.39 µM and the TGI [9] was 3 µM. For the same molecule, the GI50 [10] was 2.21 µM, the TGI [10] was 9.27 µM and the GI50 [11] was 1.77 µM. It also gave a TGI [11] of 5.96 µM, a GI50 [12] of 1.15 µM and a TGI [12] of 10.8 µM. It also gave a GI50 [13] of 2.9 µM, a TGI [13] of 16 µM and a GI50 [14] of 1.68 µM. The TGI [14] was 5.84 µM, the GI50 [15] was 0.348 µM and the TGI [15] was 2.38 µM. It also gave a GI50 [16] of 2.35 µM, a TGI [16] of 10.8 µM and a GI50 [56] of 1.23 µM. It also gave a TGI [56] of 2.58 µM, a GI50 [17] of 2.02 µM and a TGI [17] of 11 µM. For the same molecule, the GI50 [18] was 1.97 µM, the TGI [18] was 11.1 µM and the GI50 [19] was 2.3 µM. For the same molecule, the TGI [19] was 11.8 µM, the GI50 [20] was 2.92 µM and the TGI [20] was 13.5 µM. The GI50 [21] was 2.03 µM, the TGI [21] was 12.1 µM and the GI50 [22] was 2.08 µM. It also gave a TGI [22] of 12.3 µM, a GI50 [23] of 3.85 µM and a TGI [23] of 19.3 µM. The GI50 [25] was 0.802 µM, the TGI [25] was 10.8 µM and the GI50 [26] was 0.525 µM. It also gave a TGI [26] of 2.69 µM, a GI50 [27] of 1.68 µM and a TGI [27] of 12.2 µM. The GI50 [28] was 2.31 µM, the TGI [28] was 10.1 µM and the GI50 [57] was 0.8 µM. The TGI [57] was 4.26 µM, the GI50 [29] was 0.938 µM and the TGI [29] was 5.17 µM. It also gave a GI50 [30] of 1.11 µM, a TGI [30] of 4.04 µM and a GI50 [31] of 2.1 µM. It also gave a TGI [31] of 7.94 µM, a GI50 [32] of 1.04 µM and a TGI [32] of 4.73 µM. It also gave a GI50 [33] of 3.37 µM, a TGI [33] of 18.1 µM and a GI50 [34] of 0.365 µM. It also gave a TGI [34] of 1.97 µM, a GI50 [35] of 1.96 µM and a TGI [35] of 14.2 µM. For the same molecule, the GI50 [36] was 0.661 µM, the TGI [36] was 11.1 µM and the GI50 [37] was 1.9 µM. For the same molecule, the TGI [37] was 6.62 µM, the GI50 [38] was 1.24 µM and the TGI [38] was 4.92 µM. It also gave a GI50 [58] of 2.71 µM, a TGI [58] of 16.6 µM and a GI50 [39] of 2.03 µM. It also gave a TGI [39] of 21.2 µM, a GI50 [40] of 1.88 µM and a TGI [40] of 11.5 µM. It also gave a GI50 [41] of 1.75 µM, a TGI [41] of 4.4 µM and a GI50 [42] of 1.87 µM. The TGI [42] was 6.78 µM, the GI50 [43] was 1.9 µM and the TGI [43] was 5.3 µM. It also gave a GI50 [44] of 0.559 µM, a TGI [44] of 9.91 µM and a GI50 [45] of 2.45 µM. It also gave a TGI [45] of 9.16 µM, a GI50 [46] of 1.23 µM and a TGI [46] of 4.66 µM. The GI50 [47] was 2.69 µM, the TGI [47] was 21.1 µM and the GI50 [48] was 3.04 µM. For the same molecule, the TGI [48] was 14.3 µM, the GI50 [49] was 2.4 µM and the TGI [49] was 11.1 µM. It also gave a GI50 [50] of 2.88 µM, a TGI [50] of 10.8 µM and a GI50 [51] of 1.44 µM. It also gave a GI50 [52] of 3.26 µM, a TGI [52] of 13.9 µM and a GI50 [53] of 1.24 µM. For the same molecule, the TGI [53] was 2.49 µM, the GI50 [54] was 1.97 µM and the TGI [54] was 11.4 µM. It also gave a GI50 [55] of 0.615 µM and a TGI [55] of 4.11 µM.
`Cc1cnc2c(c1C)C(=O)c1ccccc1C2=O` was tested, and the TGI [1] was > 100 µM, the TGI [2] was > 100 µM and the TGI [3] was > 100 µM. For the same molecule, the TGI [4] was 88.1 µM, the TGI [5] was > 100 µM and the TGI [6] was > 100 µM. For the same molecule, the TGI [7] was > 100 µM, the TGI [8] was > 100 µM and the TGI [9] was > 100 µM. For the same molecule, the TGI [10] was > 100 µM, the TGI [11] was > 100 µM and the TGI [12] was > 100 µM. The TGI [13] was > 100 µM, the TGI [14] was > 100 µM and the TGI [15] was > 100 µM. The TGI [16] was 93.9 µM, the TGI [17] was > 100 µM and the TGI [18] was > 100 µM. For the same molecule, the TGI [19] was 39.1 µM, the TGI [20] was > 100 µM and the TGI [21] was > 100 µM. The TGI [22] was > 100 µM, the TGI [23] was > 100 µM and the TGI [25] was > 100 µM. For the same molecule, the TGI [26] was 53.8 µM, the TGI [27] was 59.3 µM and the TGI [28] was > 100 µM. The TGI [57] was > 100 µM, the TGI [29] was > 100 µM and the TGI [30] was > 100 µM. For the same molecule, the TGI [31] was > 100 µM, the TGI [32] was > 100 µM and the TGI [33] was > 100 µM. For the same molecule, the TGI [34] was > 100 µM, the TGI [35] was > 100 µM and the TGI [36] was > 100 µM. The TGI [37] was > 100 µM, the TGI [38] was > 100 µM and the TGI [58] was > 100 µM. The TGI [39] was > 100 µM, the TGI [40] was > 100 µM and the TGI [43] was > 100 µM. The TGI [44] was > 100 µM, the TGI [45] was > 100 µM and the TGI [46] was > 100 µM. The TGI [47] was > 100 µM, the TGI [48] was > 100 µM and the TGI [49] was > 100 µM. The TGI [50] was > 100 µM, the TGI [51] was > 100 µM and the TGI [52] was > 100 µM. The TGI [53] was 28.9 µM, the TGI [54] was > 100 µM and the TGI [55] was > 100 µM.
